pIC50: −log10 of the molar value. Structures can show the parent of a compound that is named as a salt.
Tested on: Aβ1-42 production
Assay: Cellular assay for inhibition of Aβ1-42 production (H4 APP751 SWE clone 8.20)
Type: cell-based
Conditions: 19 h, H4 APP751 SWE clone 8.20 cells, 19 h incubation; class symbols; read-out: Activity Rating (Aβ42 cellular IC50)
How it was run: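 H4 cells stably expressing Swedish-mutant APP751 incubated with compound 19 h at 37 °C, 5% CO2. Secreted Aβ42 detected by HTRF with Aβ42 neoepitope antibody 565 (0.8 ng/well) and N-terminal 26D6 (75 ng/well), overnight at 4 °C. IC50 obtained by curve fitting.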

Structure (SMILES)	pIC50
COc1cc(Nc2nc3c(c(N4CC(N(C)C)C4)n2)CCC3c2ccc(F)cc2)ccc1-n1cnc(Cl)c1 (stereo not shown) [Example 34, N-(4-(4-chloro-1H-imidazol-1-yl)-3-methoxyphenyl)-4-(3-(dimethylamino)azetidin-1-yl)-7-(4-fluorophenyl)-6,7-dihydro-5H-cyclopenta[d]pyrimidin-2-amine]	7.00 to 8.00
CNc1nc(Nc2ccc(-n3cnc(C)n3)c(F)c2)nc2c1CCC2c1ccc(F)cc1 (stereo not shown) [Example 35, N^2-(3-fluoro-4-(3-methyl-1H-1,2,4-triazol-1-yl)phenyl)-7-(4-fluorophenyl)-N^4-methyl-6,7-dihydro-5H-cyclopenta[d]pyrimidine-2,4-diamine]	8.00 to 8.82
COc1cc(Nc2nc3c(c(N4CC[C@@H](F)C4)n2)CCC3c2ccc(F)cc2)ccc1-n1cnc(Cl)c1 (stereo partly drawn) [Example 38, N-(4-(4-chloro-1H-imidazol-1-yl)-3-methoxyphenyl)-7-(4-fluorophenyl)-4-((R)-3-fluoropyrrolidin-1-yl)-6,7-dihydro-5H-cyclopenta[d]pyrimidin-2-amine]	7.00 to 8.00
COc1cc(Nc2nc3c(c(N4CCC(F)(F)CC4)n2)CCC3c2ccc(F)cc2)ccc1-n1cnc(Cl)c1 (stereo not shown) [Example 39B, N-(4-(4-chloro-1H-imidazol-1-yl)-3-methoxyphenyl)-4-(4,4-difluoropiperidin-1-yl)-7-(4-fluorophenyl)-6,7-dihydro-5H-cyclopenta[d]pyrimidin-2-amine]	6.00 to 7.00
COc1cc(Nc2nc3c(c(N4CCC(C(F)(F)F)C4)n2)CCC3c2ccc(F)cc2)ccc1-n1cnc(Cl)c1 (stereo not shown) [Example 41A, N-(4-(4-chloro-1H-imidazol-1-yl)-3-methoxyphenyl)-7-(4-fluorophenyl)-4-(3-(trifluoromethyl)pyrrolidin-1-yl)-6,7-dihydro-5H-cyclopenta[d]pyrimidin-2-amine]	7.00 to 8.00
CCOCCCNc1nc(Nc2ccc(-n3cnc(Cl)c3)c(OC)c2)nc2c1CCC2c1ccc(F)cc1 (stereo not shown) [Example 42, N2-(4-(4-chloro-1H-imidazol-1-yl)-3-methoxyphenyl)-N4-(3-ethoxypropyl)-7-(4-fluorophenyl)-6,7-dihydro-5H-cyclopenta[d]pyrimidine-2,4-diamine]	7.00 to 8.00
[2H]C([2H])([2H])Nc1nc(Nc2ccc(-n3cnc(Cl)c3)c(OC)c2)nc2c1CCC2c1ccc(F)cc1 (stereo not shown) [Example 47, N^2-(4-(4-Chloro-1H-imidazol-1-yl)-3-methoxyphenyl)-7-(4-fluorophenyl)-N^4-trideuteromethyl-6,7-dihydro-5H-cyclopenta[d]pyrimidine-2,4-diamine]	8.00 to 8.82
CCNc1nc(Nc2ccc(-n3cnc(C)n3)c(OC)c2)nc2c1COCC2c1ccc(F)cc1 (stereo not shown) [Example 55B, N4-ethyl-8-(4-fluorophenyl)-N2-(3-methoxy-4-(3-methyl-1H-1,2,4-triazol-1-yl)phenyl)-7,8-dihydro-5H-pyrano[4,3-d]pyrimidine-2,4-diamine]	7.00 to 8.00

Further lines, results first:

pIC50	Structure (SMILES)
8.00 to 8.82	CCNc1nc(Nc2ccc(-n3ncnc3C)c(F)c2)nc2c1COCC2c1ccc(F)cc1 (stereo not shown) [Example 59A, N4-ethyl-N2-(3-fluoro-4-(5-methyl-1H-1,2,4-triazol-1-yl)phenyl)-8-(4-fluorophenyl)-7,8-dihydro-5H-pyrano[4,3-d]pyrimidine-2,4-diamine]
7.00 to 8.00	CNc1nc(Nc2ccc(-n3cnc(Cl)c3)c(OC)c2)nc2c1COCC2c1ccc(F)cc1 (stereo not shown) [Example 60B, N2-(4-(4-chloro-1H-imidazol-1-yl)-3-methoxyphenyl)-8-(4-fluorophenyl)-N4-methyl-7,8-dihydro-5H-pyrano[4,3-d]pyrimidine-2,4-diamine]
8.00 to 8.82	CCN(C)c1nc(Nc2ccc(-n3cnc(Cl)c3)c(OC)c2)nc2c1COCC2c1ccc(F)cc1 (stereo not shown) [Example 62A, N2-(4-(4-chloro-1H-imidazol-1-yl)-3-methoxyphenyl)-N4-ethyl-8-(4-fluorophenyl)-N4-methyl-7,8-dihydro-5H-pyrano[4,3-d]pyrimidine-2,4-diamine]

Same assay, conditions: 19 h, H4 APP751 SWE clone 8.20 cells, 19 h incubation; read-out: Activity Rating (Aβ42 cellular IC50), numeric value

Structure (SMILES)	pIC50
CNC1CN(c2nc(Nc3ccc(-n4cnc(Cl)c4)c(OC)c3)nc3c2CCC3c2ccc(F)cc2)C1 (stereo not shown) [Example 33, N-(4-(4-chloro-1H-imidazol-1-yl)-3-methoxyphenyl)-7-(4-fluorophenyl)-4-(3-(methylamino)azetidin-1-yl)-6,7-dihydro-5H-cyclopenta[d]pyrimidin-2-amine]	7.00
COCC(Nc1nc(Nc2ccc(-n3cnc(Cl)c3)c(OC)c2)nc2c1CCC2c1ccc(F)cc1)C1CC1 (stereo not shown) [Example 45B, N2-(4-(4-chloro-1H-imidazol-1-yl)-3-methoxyphenyl)-N4-(1-cyclopropyl-2-methoxyethyl)-7-(4-fluorophenyl)-6,7-dihydro-5H-cyclopenta[d]pyrimidine-2,4-diamine]	8.60
CCC(COC)Nc1nc(Nc2ccc(-n3cnc(Cl)c3)c(OC)c2)nc2c1CCC2c1ccc(F)cc1 [Example 48, N2-(4-(4-chloro-1H-imidazol-1-yl)-3-methoxyphenyl)-7-(4-fluorophenyl)-N4-((R)-1-methoxybutan-2-yl)-6,7-dihydro-5H-cyclopenta[d]pyrimidine-2,4-diamine, 2 TFA]	7.74
CNc1nc(Nc2ccc(-n3cnc(Cl)c3)c(OC)c2)nc2c1COCC2c1ccccc1 (stereo not shown) [Example 51, N^2-(4-(4-chloro-1H-imidazol-1-yl)-3-methoxyphenyl)-N^4-methyl-8-phenyl-7,8-dihydro-5H-pyrano[4,3-d]pyrimidine-2,4-diamine]	8.35

The remaining lines, values ahead:

pIC50	Structure (SMILES)
8.25	CNc1nc(Nc2ccc(-n3cnc(Cl)c3)c(OC)c2)nc2c1COCC2c1ccc(F)cc1 (stereo not shown) [Example 60A, N2-(4-(4-chloro-1H-imidazol-1-yl)-3-methoxyphenyl)-8-(4-fluorophenyl)-N4-methyl-7,8-dihydro-5H-pyrano[4,3-d]pyrimidine-2,4-diamine]
7.07	CCN(C)c1nc(Nc2ccc(-n3cnc(Cl)c3)c(OC)c2)nc2c1COCC2c1ccc(F)cc1 (stereo not shown) [Example 62B, N2-(4-(4-chloro-1H-imidazol-1-yl)-3-methoxyphenyl)-N4-ethyl-8-(4-fluorophenyl)-N4-methyl-7,8-dihydro-5H-pyrano[4,3-d]pyrimidine-2,4-diamine]

Same assay, conditions: H4 APP751 SWE clone 8.20 cells, 19 h incubation; class symbols; read-out: Activity Rating (Aβ42 cellular IC50)

Structure (SMILES)	pIC50
COc1cc(Nc2nc3c(c(N4CC[C@@H](F)C4)n2)CCC3c2ccc(F)cc2)ccc1-n1cnc(Cl)c1 (stereo partly drawn) [Example 38B, N-(4-(4-chloro-1H-imidazol-1-yl)-3-methoxyphenyl)-7-(4-fluorophenyl)-4-((R)-3-fluoropyrrolidin-1-yl)-6,7-dihydro-5H-cyclopenta[d]pyrimidin-2-amine]	7.00 to 8.00
COc1cc(Nc2nc3c(c(N4CC=C(F)CC4)n2)CCC3c2ccc(F)cc2)ccc1-n1cnc(Cl)c1 (stereo not shown) [Example 40A, N-(4-(4-chloro-1H-imidazol-1-yl)-3-methoxyphenyl)-4-(4-fluoro-5,6-dihydropyridin-1(2H)-yl)-7-(4-fluorophenyl)-6,7-dihydro-5H-cyclopenta[d]pyrimidin-2-amine]	8.00 to 8.82
COc1cc(Nc2nc3c(c(N4CC=C(F)CC4)n2)CCC3c2ccc(F)cc2)ccc1-n1cnc(Cl)c1 (stereo not shown) [Example 40B, N-(4-(4-chloro-1H-imidazol-1-yl)-3-methoxyphenyl)-4-(4-fluoro-5,6-dihydropyridin-1(2H)-yl)-7-(4-fluorophenyl)-6,7-dihydro-5H-cyclopenta[d]pyrimidin-2-amine]	6.00 to 7.00
CNc1nc(Nc2ccc(-n3cnc(C)n3)c(OC)c2)nc2c1COCC2c1ccc(F)cc1 (stereo not shown) [Example 54A, 8-(4-fluorophenyl)-N2-(3-methoxy-4-(3-methyl-1H-1,2,4-triazol-1-yl)phenyl)-N4-methyl-7,8-dihydro-5H-pyrano[4,3-d]pyrimidine-2,4-diamine]	7.00 to 8.00
CNc1nc(Nc2ccc(-n3cnc(C)n3)c(OC)c2)nc2c1COCC2c1ccc(F)cc1 (stereo not shown) [Example 54B, 8-(4-fluorophenyl)-N2-(3-methoxy-4-(3-methyl-1H-1,2,4-triazol-1-yl)phenyl)-N4-methyl-7,8-dihydro-5H-pyrano[4,3-d]pyrimidine-2,4-diamine]	8.00 to 8.82
CCNc1nc(Nc2ccc(-n3cnc(Cl)c3)c(OC)c2)nc2c1COCC2c1ccc(F)cc1 (stereo not shown) [Example 56A, N2-(4-(4-chloro-1H-imidazol-1-yl)-3-methoxyphenyl)-N4-ethyl-8-(4-fluorophenyl)-7,8-dihydro-5H-pyrano[4,3-d]pyrimidine-2,4-diamine]	8.00 to 8.82

Second part, the compound after the results:

pIC50	Structure (SMILES)
7.00 to 8.00	CCNc1nc(Nc2ccc(-n3cnc(Cl)c3)c(OC)c2)nc2c1COCC2c1ccc(F)cc1 (stereo not shown) [Example 56B, N2-(4-(4-chloro-1H-imidazol-1-yl)-3-methoxyphenyl)-N4-ethyl-8-(4-fluorophenyl)-7,8-dihydro-5H-pyrano[4,3-d]pyrimidine-2,4-diamine]
8.00 to 8.82	COc1cc(Nc2nc3c(c(N(C)C)n2)COCC3c2ccc(F)cc2)ccc1-n1cnc(Cl)c1 (stereo not shown) [Example 61A, N2-(4-(4-chloro-1H-imidazol-1-yl)-3-methoxyphenyl)-8-(4-fluorophenyl)-N4,N4-dimethyl-7,8-dihydro-5H-pyrano[4,3-d]pyrimidine-2,4-diamine]
7.00 to 8.00	COc1cc(Nc2nc3c(c(N(C)C)n2)COCC3c2ccc(F)cc2)ccc1-n1cnc(Cl)c1 (stereo not shown) [Example 61B, N2-(4-(4-chloro-1H-imidazol-1-yl)-3-methoxyphenyl)-8-(4-fluorophenyl)-N4,N4-dimethyl-7,8-dihydro-5H-pyrano[4,3-d]pyrimidine-2,4-diamine]
7.00 to 8.00	COc1cc(Nc2nc3c(c(N4CC(F)(F)C4)n2)COCC3c2ccc(F)cc2)ccc1-n1cnc(Cl)c1 (stereo not shown) [Example 63A, N-(4-(4-chloro-1H-imidazol-1-yl)-3-methoxyphenyl)-4-(3,3-difluoroazetidin-1-yl)-8-(4-fluorophenyl)-7,8-dihydro-5H-pyrano[4,3-d]pyrimidin-2-amine]
6.00 to 7.00	COc1cc(Nc2nc3c(c(N4CC(F)(F)C4)n2)COCC3c2ccc(F)cc2)ccc1-n1cnc(Cl)c1 (stereo not shown) [Example 63B, N-(4-(4-chloro-1H-imidazol-1-yl)-3-methoxyphenyl)-4-(3,3-difluoroazetidin-1-yl)-8-(4-fluorophenyl)-7,8-dihydro-5H-pyrano[4,3-d]pyrimidin-2-amine]

Reference: patent US8637525B2, “Compounds for the reduction of beta-amyloid production” (Bristol-Myers Squibb Company, priority 2009, dated 2014)
